Test results: patent US20030180924A1, “Formulation of certain pyrazolo [3,4,-d] pyrimidines as kinase modulators” (priority 2002, published 2003)
Like-named read-outs stand apart in the source and are kept apart here.

How the values were obtained:
[1] = Bioavailability testing, IV treatment (whole blood, LC/MS); format: in vivo; settings: male CD-1 mice; for AUC: whole blood; for clearance / Vd: mouse, in vivo; for Vd: read-out: Vdss
Protocol: (§1) Compositions comprising the free base of 1-Na-PP1 and 1-NM-PP1 (Control) and the hydrochloride salt of 1-Na-PP1 and 1-NM-PP1 formulated with Vitamin E TPGS are administered to male CD-1 mice intraperitoneally (IP) and intravenously (IV). Whole blood samples were collected from three animals per time point and prior via cardiac puncture into EDTA tubes and placed on wet ice. Samples were analyzed after drying and predissolution in 0.1:20:80 formic acid:methanol:water by liquid chromatography/mass spectrometry using an Xterra C182.5 micromenter particle size analytical column (15 mm×2.1 mm).

[2] = Bioavailability testing, IP treatment (whole blood, LC/MS); format: in vivo; settings: 0.793 mg/Kg, male CD-1 mice; for AUC / Cmax: whole blood; for Tmax / bioavailability / half-life / Cmax: mouse, in vivo; for half-life: read-out: T½ (converted)
Protocol: as §1

Work on `CC(C)(C)n1nc(-c2cccc3ccccc23)c2c(N)ncnc21` [1-Na-PP1 (Control), 1-tert-butyl-3-naphthalen-1-yl-1H-pyrazolo[3,4-d]pyrimidin-4-ylamine] yielded an AUC/Dose ([1]; 0.269 mg/Kg) of 0.12 ng·h/mL/µg/kg, a T½ ([1]; 0.269 mg/Kg) of 27.6 min and an AUC ([1]; 0.269 mg/Kg) of 32.14 ng·h/mL. It also gave a clearance ([1]; 0.269 mg/Kg) of 133 mL/min/kg, a Vd ([1]; 0.269 mg/Kg) of 5.3 L/kg and an AUC/Dose [2] of 0.13 ng·h/mL/µg/kg. The AUC [2] was 99.37 ng·h/mL, the Tmax [2] was 4.98 min and the bioavailability [2] was 100%. For the same compound, the half-life [2] was 90.6 min and the Cmax [2] was 55 ng/mL.

With `CC(C)(C)n1nc(Cc2cccc3ccccc23)c2c(N)ncnc21` [1-NM-PP1 (Control)] the AUC/Dose ([1]; 0.793 mg/Kg) was 0.13 ng·h/mL/µg/kg, the T½ ([1]; 0.793 mg/Kg) was 23.4 min and the AUC ([1]; 0.793 mg/Kg) was 37.08 ng·h/mL. For the same compound, the clearance ([1]; 0.793 mg/Kg) was 130 mL/min/kg, the Vd ([1]; 0.793 mg/Kg) was 4.1 L/kg and the AUC/Dose [2] was 0.16 ng·h/mL/µg/kg. For the same compound, the AUC [2] was 134.84 ng·h/mL, the Tmax [2] was 4.98 min and the bioavailability [2] was 100%. The half-life [2] was 85.2 min and the Cmax [2] was 90.6 ng/mL.
